Experimental data as given in US9377460B2 (priority 2009, dated 2016).

Legend:
[1] = system: IFN-gamma-secreting T cells; format: cell-based, human; details: for Proportion of responders to the Rv3615c peptide pool who respond to the individual peptide, LTBI % / Proportion of responders to the Rv3615c peptide pool who respond to the individual peptide, LTBI n: LTBI subjects; for Proportion of responders to the Rv3615c peptide pool who respond to the individual peptide, LTBI n / Proportion of responders to the Rv3615c peptide pool who respond to the individual peptide, Cases n: subjects responding/pool responders tested; for Proportion of responders to the Rv3615c peptide pool who respond to the individual peptide, Cases % / Proportion of responders to the Rv3615c peptide pool who respond to the individual peptide, Cases n: active TB cases
CD4-positive T cells = assay: FACS analysis following cytokine capture assay (IFN-gamma / IL-2); format: cell-based, human; details: subject T416 (LTBI), 6 hour stimulation

Row | Sequence | Proportion of responders to the Rv3615c peptide pool who respond to the individual peptide, LTBI % [1] [%] | Proportion of responders to the Rv3615c peptide pool who respond to the individual peptide, LTBI n [1] | Proportion of responders to the Rv3615c peptide pool who respond to the individual peptide, Cases % [1] [%] | Proportion of responders to the Rv3615c peptide pool who respond to the individual peptide, Cases n [1] | CD4 T cells secreting IFN-gamma only, relative size of subset (CD4-positive T cells) | CD4 T cells secreting IL-2 only, relative size of subset (CD4-positive T cells) | CD4 T cells secreting both IFN-gamma and IL-2, relative size of subset (CD4-positive T cells)
1 | ASSGVEAAAGLGESV (listed as Mycobacterium tuberculosis) [p6, 15mer peptide of Rv3615c] | 0 | 0/5 | 7 | 1/15 |  |  | 
2 | MTENLTVQPERLGVL (listed as Mycobacterium tuberculosis) [p1, 15mer peptide of Rv3615c] | 0 | 0/5 | 7 | 1/15 |  |  | 
3 | RLGVLASHHDNAAVD (listed as Mycobacterium tuberculosis) [p3, 15mer peptide of Rv3615c] | 40 | 2/5 | 20 | 3/15 |  |  | 
4 | LGESVAITHGPYCSQ (listed as Mycobacterium tuberculosis) [p8, 15mer peptide of Rv3615c] | 0 | 0/5 | 7 | 1/15 |  |  | 
5 | FNDTLNVYLTAHNAL (listed as Mycobacterium tuberculosis) [p11, 15mer peptide of Rv3615c] | 0 | 0/5 | 27 | 4/15 |  |  | 
6 | ASHHDNAAVDASSGV (listed as Mycobacterium tuberculosis) [p4, 15mer peptide of Rv3615c] | 20 | 1/5 | 13 | 2/15 |  |  | 
7 | AITHGPYCSQFNDTL (listed as Mycobacterium tuberculosis) [p9, 15mer peptide of Rv3615c] | 40 | 2/5 | 0 | 0/15 |  |  | 
8 | GSSLHTAGVDLAKSL (listed as Mycobacterium tuberculosis) [p14, 15mer peptide of Rv3615c] | 50 | 2/4 | 79 | 11/14 | smallest population | second largest population | dominant population
9 | DEAWRKAIDGLFT (listed as Mycobacterium tuberculosis) [p19, carboxy-terminal peptide of Rv3615c] | 25 | 1/4 | 15 | 2/13 |  |  | 
10 | IYSEADEAWRKAIDG (listed as Mycobacterium tuberculosis) [p18, 15mer peptide of Rv3615c] | 25 | 1/4 | 8 | 1/13 |  |  | 
11 | PYCSQFNDTLNVYLT (listed as Mycobacterium tuberculosis) [p10, 15mer peptide of Rv3615c] | 40 | 2/5 | 40 | 6/15 |  |  | 
12 | LAKSLRIAAKIYSEA (listed as Mycobacterium tuberculosis) [p16, 15mer peptide of Rv3615c] | 100 | 4/4 | 69 | 9/13 | smallest population | second largest population | dominant population
13 | AHNALGSSLHTAGVD (listed as Mycobacterium tuberculosis) [p13, 15mer peptide of Rv3615c] | 0 | 0/4 | 21 | 3/14 |  |  | 
14 | NAAVDASSGVEAAAG (listed as Mycobacterium tuberculosis) [p5, 15mer peptide of Rv3615c] | 20 | 1/5 | 13 | 2/15 |  |  | 
15 | NVYLTAHNALGSSLH (listed as Mycobacterium tuberculosis) [p12, 15mer peptide of Rv3615c] | 40 | 2/5 | 43 | 6/14 |  |  | 
16 | RIAAKIYSEADEAWR (listed as Mycobacterium tuberculosis) [p17, 15mer peptide of Rv3615c] | 50 | 2/2 | 38 | 5/13 |  |  | 
17 | EAAAGLGESVAITHG (listed as Mycobacterium tuberculosis) [p7, 15mer peptide of Rv3615c] | 0 | 0/5 | 7 | 1/15 |  |  | 
18 | TAGVDLAKSLRIAAK (listed as Mycobacterium tuberculosis) [p15, 15mer peptide of Rv3615c] | 50 | 2/4 | 71 | 10/14 |  |  | 
19 | TVQPERLGVLASHHD (listed as Mycobacterium tuberculosis) [p2, 15mer peptide of Rv3615c] | 0 | 0/5 | 33 | 5/15 |  |  | 
